These results are taken from ChEMBL document CHEMBL1139353, “Discovery of a new class of potential multifunctional atypical antipsychotic agents targeting dopamine D3 and serotonin 5-HT1A and 5-HT2A receptors: design, synthesis, and effects on behavior” (J Med Chem, 2009).

Calls of active or inactive are those of the source. No cut-off for these calls is given here.

Series [1] addresses 5-hydroxytryptamine receptor 2A (Rattus norvegicus, UniProt P14842). The experiment in a line: Intrinsic activity at 5HT2A receptor in Wistar rat aorta. The class given is tissue-based.
The nature of series [2]: Displacement of [3H]idazoxan from imidazole I2 receptor in rabbit kidney by filtration technique. The arrangement: species or system Oryctolagus cuniculus.
Series [3] deals with T1, Adrenergic receptor alpha-2 (Rattus norvegicus, UniProt P22086+P19328+P22909).
T1 sequence (P22086 whole entry): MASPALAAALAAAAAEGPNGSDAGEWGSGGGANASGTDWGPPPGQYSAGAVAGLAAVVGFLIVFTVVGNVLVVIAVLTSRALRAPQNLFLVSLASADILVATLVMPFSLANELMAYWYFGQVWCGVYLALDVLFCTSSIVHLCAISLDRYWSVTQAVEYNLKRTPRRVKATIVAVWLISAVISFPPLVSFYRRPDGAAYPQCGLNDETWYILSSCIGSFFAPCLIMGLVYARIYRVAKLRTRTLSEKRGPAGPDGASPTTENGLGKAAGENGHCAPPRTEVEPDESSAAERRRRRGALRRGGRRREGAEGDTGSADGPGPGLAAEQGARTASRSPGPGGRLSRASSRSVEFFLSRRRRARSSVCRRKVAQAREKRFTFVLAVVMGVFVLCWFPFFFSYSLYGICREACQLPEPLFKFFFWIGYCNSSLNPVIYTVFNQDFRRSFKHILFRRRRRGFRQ
T1 sequence (P19328 whole entry): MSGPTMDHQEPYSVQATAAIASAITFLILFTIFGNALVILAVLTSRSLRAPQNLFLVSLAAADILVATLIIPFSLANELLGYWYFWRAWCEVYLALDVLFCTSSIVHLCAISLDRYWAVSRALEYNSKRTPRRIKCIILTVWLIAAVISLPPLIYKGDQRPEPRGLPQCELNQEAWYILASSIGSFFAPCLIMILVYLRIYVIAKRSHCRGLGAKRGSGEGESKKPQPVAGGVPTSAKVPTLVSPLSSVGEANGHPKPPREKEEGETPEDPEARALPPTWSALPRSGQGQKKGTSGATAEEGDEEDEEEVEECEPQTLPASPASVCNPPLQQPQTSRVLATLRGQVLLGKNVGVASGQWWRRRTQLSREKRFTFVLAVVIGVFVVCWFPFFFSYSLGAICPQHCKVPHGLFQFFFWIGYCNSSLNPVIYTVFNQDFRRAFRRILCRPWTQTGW
T1 sequence (P22909 whole entry): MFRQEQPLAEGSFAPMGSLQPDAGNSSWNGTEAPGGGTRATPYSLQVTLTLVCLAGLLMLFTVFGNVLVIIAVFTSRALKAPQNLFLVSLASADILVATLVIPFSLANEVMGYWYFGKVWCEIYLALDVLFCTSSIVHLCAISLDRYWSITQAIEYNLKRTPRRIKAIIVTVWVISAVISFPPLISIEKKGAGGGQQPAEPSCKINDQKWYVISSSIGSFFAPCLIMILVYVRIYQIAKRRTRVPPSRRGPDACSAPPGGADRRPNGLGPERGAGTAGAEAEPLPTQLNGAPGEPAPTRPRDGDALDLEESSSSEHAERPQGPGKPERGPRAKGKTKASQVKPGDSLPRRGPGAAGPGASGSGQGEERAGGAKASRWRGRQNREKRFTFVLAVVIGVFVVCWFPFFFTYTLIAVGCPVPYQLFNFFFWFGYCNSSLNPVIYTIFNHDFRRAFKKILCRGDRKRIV
In words: Displacement of [3H]clonidine from adrenergic alpha2 receptor in rat cerebral cortex by filtration technique. Type of series: tissue-based.

In series [4] the target is D(3) dopamine receptor (Homo sapiens, UniProt P35462). In words: Antagonist activity at human dopamine D3 receptor expressed in CHO-K1 cells by [35S]GTPgammaS binding assay. The class given is functional, cell-based.
Sequence of D(3) dopamine receptor (P35462 whole entry): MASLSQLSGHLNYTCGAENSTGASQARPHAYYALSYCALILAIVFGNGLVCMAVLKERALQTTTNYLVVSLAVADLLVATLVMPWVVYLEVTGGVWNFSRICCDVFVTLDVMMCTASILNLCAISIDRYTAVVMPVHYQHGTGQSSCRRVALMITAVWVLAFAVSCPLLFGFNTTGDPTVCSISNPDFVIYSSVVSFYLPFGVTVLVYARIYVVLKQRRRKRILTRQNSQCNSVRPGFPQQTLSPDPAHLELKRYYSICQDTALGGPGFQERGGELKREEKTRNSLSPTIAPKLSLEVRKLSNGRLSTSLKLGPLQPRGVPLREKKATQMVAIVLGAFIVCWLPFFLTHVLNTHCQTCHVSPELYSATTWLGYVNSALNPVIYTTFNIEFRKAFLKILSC
The test system of series [5] is Mus musculus. Conditions: NMRI.
Description: Antipsychotic activity in NMRI mouse assessed as reduction in phencyclidine-induced locomotor activity administered 30 mins prior to testing measured for 60 mins
Series [6] has as its target T2, 5-hydroxytryptamine receptor 1A (Rattus norvegicus, UniProt P19327).
T2 sequence (P19327 whole entry): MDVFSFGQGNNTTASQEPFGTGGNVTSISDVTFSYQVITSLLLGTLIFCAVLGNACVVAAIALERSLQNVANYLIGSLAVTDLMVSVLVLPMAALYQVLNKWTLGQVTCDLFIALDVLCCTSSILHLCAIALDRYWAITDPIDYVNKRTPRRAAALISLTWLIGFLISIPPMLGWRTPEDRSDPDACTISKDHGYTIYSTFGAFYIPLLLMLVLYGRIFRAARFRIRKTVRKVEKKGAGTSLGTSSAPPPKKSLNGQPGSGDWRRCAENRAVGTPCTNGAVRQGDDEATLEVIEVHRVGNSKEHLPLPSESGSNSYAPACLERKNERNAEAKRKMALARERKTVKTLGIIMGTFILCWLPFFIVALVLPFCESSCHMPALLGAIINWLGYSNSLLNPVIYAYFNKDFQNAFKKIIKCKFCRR
The experiment in a line: biochemical.
Description: Displacement of [3H]8OH-DPAT from 5HT1A receptor in CRL:CD(SD)BR-COBS rat hippocampus by scintillation spectrometry

For series [7], the system named is Mus musculus. In words: Sedative activity in NMRI mouse assessed as reduction in spontaneous locomotor activity at 10 mg/kg administered 30 mins prior to testing relative to control. The class given is organism-based. The following applies: in vivo, 0.5 h. The arrangement: dose 10 mg/kg.
Series [8] addresses Histamine H1 receptor (Cavia porcellus, UniProt P31389). In words: Displacement of [3H]pyrilamine from histamine H1 receptor in guinea pig cerebellum. The class given is tissue-based.
Series [9] can be described thus: Intrinsic activity at 5HT1A receptor in Duncan Hartley guinea pig ileum. Type of series: tissue-based. The following applies: Cavia porcellus.
Series [10] deals with Mus musculus. In words: Antipsychotic activity in NMRI mouse assessed as reduction in methamphetamine-induced locomotor activity at 10 mg/kg administered 30 mins prior to testing measured for 60 mins relative to control. The class given is functional, organism-based. The arrangement: dose 10 mg/kg.

Sequence of 5-hydroxytryptamine receptor 2A (P14842 whole entry): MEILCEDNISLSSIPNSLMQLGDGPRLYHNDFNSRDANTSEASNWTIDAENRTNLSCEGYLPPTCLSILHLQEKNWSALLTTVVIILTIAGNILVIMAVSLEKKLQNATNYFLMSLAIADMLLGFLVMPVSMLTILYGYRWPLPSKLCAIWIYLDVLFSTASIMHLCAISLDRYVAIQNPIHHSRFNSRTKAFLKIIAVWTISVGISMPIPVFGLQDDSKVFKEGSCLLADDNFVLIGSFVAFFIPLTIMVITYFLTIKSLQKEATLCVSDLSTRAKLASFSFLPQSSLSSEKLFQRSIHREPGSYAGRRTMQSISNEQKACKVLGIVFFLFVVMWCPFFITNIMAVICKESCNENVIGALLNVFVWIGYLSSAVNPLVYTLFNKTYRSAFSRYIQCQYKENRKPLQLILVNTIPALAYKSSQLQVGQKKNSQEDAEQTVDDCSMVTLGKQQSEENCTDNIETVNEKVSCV
Sequence of Histamine H1 receptor (P31389 whole entry): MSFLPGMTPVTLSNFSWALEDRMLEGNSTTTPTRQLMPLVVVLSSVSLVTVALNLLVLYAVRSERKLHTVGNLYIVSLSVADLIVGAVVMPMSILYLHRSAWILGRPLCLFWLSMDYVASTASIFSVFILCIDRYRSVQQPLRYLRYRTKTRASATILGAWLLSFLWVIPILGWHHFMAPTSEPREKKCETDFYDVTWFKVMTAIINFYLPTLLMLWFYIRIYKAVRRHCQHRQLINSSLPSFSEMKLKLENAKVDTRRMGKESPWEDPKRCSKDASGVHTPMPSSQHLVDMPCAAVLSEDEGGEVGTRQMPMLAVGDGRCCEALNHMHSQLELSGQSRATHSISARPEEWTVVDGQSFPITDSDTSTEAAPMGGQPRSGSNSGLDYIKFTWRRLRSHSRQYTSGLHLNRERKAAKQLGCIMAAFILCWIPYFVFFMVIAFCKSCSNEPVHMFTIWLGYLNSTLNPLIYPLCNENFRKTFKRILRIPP

`Cc1cccc(N2CCN(CCCCNC(=O)c3cc4ccccc4o3)CC2)c1`: the IC50 in series [1] was found to be 230 nM; in series [4], 143 nM; in series [9] it was 180 nM. Further, the inhibitory constant (Ki) in [2] worked out at 138 nM; in series [3] it was 43 nM; in [6] it was 11.9 nM; in [8], 15 nM. The Activity entry in [5] is “Dose-dependent effect”; in series [7] it was “Toxic”. Also, the outcome in series [10] was Active.
